The record followed here is patent publication US12712053B2, “Determining the stability of a substance or substance mixture” (BIONORICA SE, priority 2022, dated 2026).

Like-named read-outs stand apart in the source and are kept apart here.

Data set [1] has as its system HEK295 cells. The settings on record: for Main test: maximum Euclidian distance: NIR, plateau value of curve fit. The text has this:
The subject of the investigation was: • HEK295 cells, provided by Microbify, in a concentration of 2.2*10^5 cells/ml in medium, grown confluently, i.e. adherently grown cells that have formed a continuous monolayer/cell layer, in the NIR measuring vessels with transflectance stamp made of stainless steel from BrukerOptics • Use of nutrient medium DMEM (Dulbecco's Modified Eagle's Medium), with high glucose content, HEPES buffer, without phenol red indicator. Medium was purchased ready-to-use from ThermoFisher, catalog number 21063045, and mixed with 10% fetal calf serum (v/v) and 1% penicillin-streptomycin solution (v/v). • Cell culture for 48 hours before measurement directly in the measuring vessel • Addition of several concentrations of ethanol: 0% (control), 3%, 6% (each v/v). […] Before the experiment began, the cells were confluent, i.e. 100% viable • Measurement of cell changes via NIR over a period of […]
The measuring instrument used was a near-infrared spectroscopy device microPHAZIR GP (Thermo Fisher Scientific Inc.) with a wave number range: 6266 cm^−1 to 4172 cm^−1
Data pretreatment of the NIR spectra: No special pretreatment was carried out, spectra were processed directly.
The following calculation parameters were chosen: Euclidean distance
The cells were removed from the incubator and treated with a chemical stress factor (ethanol) at the concentrations mentioned. Three independent replicates were prepared with 0%, 3% and 6% ethanol and in a narrow measured at intervals of time (every 2 minutes) over a total period of 6 hours via NIR.
From the measured spectra, the Euclidean distances were calculated according to the method of the invention, averaged per measurement time and the fitting of kinetic curves (cf. Application example 3; identical procedure). […] The data points are the mean values of 3 independent replicates, each measured 3 times, thus there are 9 measurement points per point. The error bars are the standard error of the mean. Also shown are the determination points for Km (time at which 50% of the plateau value was reached), K90 (time at which 90% of the plateau value was reached), and K95 (time at which 95% of the plateau value was reached).

Data set [2] is described as follows: in vitro. The following applies: human, HEK295 cells.

For the compound `CCO` [ethanol], the “Km (time at which 50% of the plateau value was reached)” value in data set [1] (3% EtOH) is ~ 13 min. The “Main test: maximum Euclidian distance” value in data set [1] (3% ethanol (v/v)) is 0.194. Besides, the “Km (time at which 50% of the plateau value was reached)” value in data set [1] (6% EtOH) is ~ 11 min. Besides, the “Main test: maximum Euclidian distance” value in data set [1] (6% ethanol (v/v)) was determined as 0.272. In data set [2], this compound gave a viability at 2.5 % ethanol of 68%, a viability at 3 % ethanol of 70.8%, a viability at 5 % ethanol of 65.5% and a viability at 6 % ethanol of 41.4%. For the same compound, in data set [2], the viability at 7.5 % ethanol came to 22.5% and the viability at 10 % ethanol was 0%.
